Measurements published in patent publication US5106834A, “Linear free-sulfhydryl-containing oligopeptide derivatives as antihypertensive agents” (G. D. Searle & Co., priority 1988, dated 1992).
Positions of bridges follow the written chain, without caps; N, C: chain ends. Non-standard residues stand in square brackets, D forms with d. Residues, ends and D or L forms follow the SMILES beside them. No end group written: not given here. Cha = N[C@@H](CC1CCCCC1)C(=O)O; Pen = CC(C)(S)[C@H](N)C(=O)O

System: rabbit aortic rings

Row | Compound | EC50 (read-out: EC50 in the rabbit aorta, relaxation of norepinephrine precontracted rings, n = 8) [nM] | Relative Potencies to ANP-(103-126), Rabbit Aorta (relaxation of norepinephrine (50 nM) precontracted rings, EC50 compared with ANP-(103-126))
1 | CC[C@H](C)[C@@H]1NC(=O)[C@H](CCCNC(=N)N)NC(=O)[C@H](CC(=O)O)NC(=O)[C@H]([C@@H](C)CC)NC(=O)[C@H](CCCNC(=N)N)NC(=O)CNC(=O)CNC(=O)[C@H](Cc2ccccc2)NC(=O)[C@@H](NC(=O)[C@H](CO)NC(=O)[C@@H](N)CO)CSSC[C@@H](C(=O)N[C@@H](CC(N)=O)C(=O)N[C@@H](CO)C(=O)N[C@@H](Cc2ccccc2)C(=O)N[C@@H](CCCNC(=N)N)C(=O)N[C@@H](Cc2ccc(O)cc2)C(=O)O)NC(=O)CNC(=O)[C@H](CC(C)C)NC(=O)CNC(=O)[C@H](CO)NC(=O)[C@H](CCC(N)=O)NC(=O)[C@H](C)NC(=O)CNC1=O [ANP-(103-126), ATRIOPEPTIN III] (H-SSCFGGRIDRIGAQSGLGCNSFRY-OH; disulfide 3-19) | 2.3 ± 1.6 | 
2 | [Pen][Cha]GRIDRIG-NH2 [Peptide No. 6] |  | 0.010
